Source: the supplement of paper PMC6045584
± gives the standard deviation of the averaged measurements.

Legend:
[1] = compound: COc1ccc(-c2cc3c(C)nc(N)nc3n([C@H]3CC[C@H](OCCO)CC3)c2=O)cn1; assay: surviving fraction relative to DMSO-only wells; higher = less growth inhibition; details: exposure time: 5 days
Procedure, shortened: (§1)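 A line counted only if its three screens reached replicate Pearson r >0.7 and median Z' >0.3. Tumour cells in log phase were seeded at 250–500 per well in 384-well plates and, after 24 hours, kept in continuous contact with inhibitors at 0.5, 1, 5, 10, 50, 100, 500 and 1000 nM for five days. Surviving fraction was taken from CellTiter-Glo luminescence relative to the median of DMSO-only wells.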

IMATINIB = compound: Cc1ccc(NC(=O)c2ccc(CN3CCN(C)CC3)cc2)cc1Nc1nccc(-c2cccnc2)n1 [IMATINIB]; assay: as above; details: exposure time: 5 days
Procedure, shortened: as §1

| Test System | surviving fraction ([1]; 0.5 nM) | surviving fraction ([1]; 1 nM) | surviving fraction ([1]; 5 nM) | surviving fraction ([1]; 10 nM) | surviving fraction ([1]; 50 nM) | surviving fraction ([1]; 100 nM) | surviving fraction ([1]; 500 nM) | surviving fraction ([1]; 1000 nM) | surviving fraction (IMATINIB; 0.5 nM) | surviving fraction (IMATINIB; 1 nM) | surviving fraction (IMATINIB; 5 nM) | surviving fraction (IMATINIB; 50 nM) | surviving fraction (IMATINIB; 500 nM) | surviving fraction (IMATINIB; 10 nM) | surviving fraction (IMATINIB; 100 nM) | surviving fraction (IMATINIB; 1000 nM) |
| --- | --- | --- | --- | --- | --- | --- | --- | --- | --- | --- | --- | --- | --- | --- | --- | --- |
| SCC36 HEADNECK | 1.11 ± 0.012 | 0.988 ± 0.031 | 0.914 ± 0.016 | 1.11 ± 0.056 | 0.807 ± 0.017 | 0.84 ± 0.086 | 0.167 ± 0.024 | 0.143 ± 0.024 | 1.03 ± 0.11 | 1.04 ± 0.18 | 1.09 ± 0.12 | 1.11 ± 0.024 | 0.886 ± 0.066 |  |  |  |
| SCC47 HEADNECK | 0.983 ± 0.021 | 0.992 ± 0.084 | 0.992 ± 0.027 | 1.01 ± 0.015 | 0.903 ± 0.032 | 0.886 ± 0.019 | 0.371 ± 0.013 | 0.225 ± 0.0095 | 1.12 ± 0.017 | 1.2 ± 0.065 | 1.18 ± 0.072 | 1.19 ± 0.025 | 1.22 ± 0.11 | 1.19 ± 0.013 | 1.25 ± 0.1 | 1.21 ± 0.028 |
| SCC90 HEADNECK | 0.913 ± 0.076 | 0.916 ± 0.037 | 0.892 ± 0.034 | 0.904 ± 0.15 | 0.674 ± 0.074 | 0.555 ± 0.077 | 0.194 ± 0.025 | 0.222 ± 0.054 |  |  | 1.07 ± 0.011 | 1.17 ± 0.076 | 1.17 ± 0.067 | 1.01 ± 0.073 | 1.14 ± 0.08 | 1.26 ± 0.082 |
| SG27 HEADNECK | 1.03 ± 0.11 | 1.02 ± 0.12 | 0.945 ± 0.042 | 0.935 ± 0.11 | 0.834 ± 0.21 | 0.703 ± 0.048 | 0.424 ± 0.0087 | 0.357 ± 0.039 |  |  | 1.02 ± 0.16 | 1.01 ± 0.079 | 1.09 ± 0.18 | 1.13 ± 0.088 | 1.17 ± 0.21 | 1.14 ± 0.068 |
| SG28 HEADNECK | 1.042 ± 0.0068 | 1.033 ± 0.0092 | 0.998 ± 0.1 | 0.899 ± 0.058 | 0.691 ± 0.036 | 0.621 ± 0.057 | 0.3 ± 0.0047 | 0.242 ± 0.005 | 1.25 ± 0.093 | 1.11 ± 0.12 |  |  | 1.18 ± 0.11 |  |  | 1.14 ± 0.096 |
| SG31 HEADNECK | 0.99 ± 0.13 | 0.942 ± 0.1 | 0.933 ± 0.08 | 0.766 ± 0.057 | 0.637 ± 0.036 | 0.463 ± 0.054 | 0.25 ± 0.014 | 0.162 ± 0.023 | 1.16 ± 0.19 | 1.33 ± 0.14 | 1.36 ± 0.36 | 1.07 ± 0.1 | 1.33 ± 0.21 | 1.16 ± 0.33 | 0.994 ± 0.022 | 1.18 ± 0.16 |
| SG32 HEADNECK | 1.08 ± 0.076 | 1.09 ± 0.38 | 1.02 ± 0.11 | 1.34 ± 0.31 | 1.04 ± 0.095 | 0.982 ± 0.14 | 0.432 ± 0.086 | 0.263 ± 0.044 |  |  | 1.2 ± 0.18 |  | 1.17 ± 0.052 |  | 1 ± 0.14 | 1.21 ± 0.16 |
| SG43 HEADNECK | 0.954 ± 0.097 | 1 ± 0.041 | 0.747 ± 0.054 | 0.613 ± 0.06 | 0.506 ± 0.046 | 0.427 ± 0.032 | 0.266 ± 0.02 | 0.168 ± 0.007 | 1.16 ± 0.41 | 1.07 ± 0.36 | 0.895 ± 0.2 | 1.01 ± 0.2 | 1.11 ± 0.13 | 1.03 ± 0.23 | 0.901 ± 0.27 | 1.16 ± 0.33 |
| SIHA CERVIX | 1.01 ± 0.032 | 1.02 ± 0.07 | 0.974 ± 0.062 | 0.93 ± 0.063 | 0.656 ± 0.025 | 0.536 ± 0.024 | 0.232 ± 0.0035 | 0.161 ± 0.011 | 1.1 ± 0.04 | 1.1 ± 0.054 |  | 1.15 ± 0.073 | 1.12 ± 0.076 | 1.09 ± 0.065 | 1.17 ± 0.054 |  |
| SJSA1 BONE | 1.04 ± 0.035 | 0.976 ± 0.023 | 0.989 ± 0.058 | 0.941 ± 0.027 | 0.743 ± 0.059 | 0.671 ± 0.028 | 0.2 ± 0.011 | 0.116 ± 0.0015 | 1.65 ± 0.051 | 1.71 ± 0.075 | 1.64 ± 0.1 | 0.61 ± 0.12 | 1.65 ± 0.039 | 1.83 ± 0.1 | 1.36 ± 0.01 | 1.33 ± 0.024 |
| SKBR3 BREAST | 0.863 ± 0.093 | 0.88 ± 0.073 | 0.833 ± 0.23 | 0.763 ± 0.15 | 0.434 ± 0.073 | 0.204 ± 0.043 | 0.058 ± 0.0053 | 0.0507 ± 0.0047 | 1.02 ± 0.2 | 1.09 ± 0.09 |  | 1.09 ± 0.081 | 1.24 ± 0.15 | 1.11 ± 0.14 | 1.16 ± 0.063 | 1.07 ± 0.15 |
